Data on eight molecules can be found in article PMC7801115, “Preclinical in vitro screening of newly synthesised amidino substituted benzimidazoles and benzothiazoles” (Journal of Enzyme Inhibition and Medicinal Chemistry, 2021).

The test system of data set [1] is A549. Nature of the data set: MTS cell viability (cytotoxicity) assay, 2D cell culture. The class given is cell-based. To be noted: Homo sapiens, A549, 2D cell culture, 72 h, ±SD, N = 2, read-out: IC50 antitumor activity A549 2D. The method, then: (§1) Compounds are diluted 1:3. 500 nL (for 2 D cell culture) or 400 nL (for 3 D cell culture) of compound were transferred from mother plate to test plate by using Mosquito (TTP labtech). DMSO percentage in test concentrations was 0.5 − 1.0%. Starting concentration of the test compounds and standard compound doxorubicin was 50 µM (2 D cell culture) or 100 µM (3 D cell culture).
(§2) Cells were grown in 96 well cell star polystyrene plates. 10,000 cells/well were seeded in wells 4 h prior the treatment with different compounds concentrations and incubated for 72 h. A cell viability assay was performed according to the manufacturer’s instruction, using CellTiter 96 aqueous solution, MTS kit (Promega, Madison, WI, USA). After 0.5–2 h of cell incubation with MTS in 2 D cell culture, the plates were read using PE EnVision absorbance at 490 nm. […] Since we prefer homogeneous assays (mix and read procedures) and therefore MTS is more practical (one step less than MTT). MTS is more sensitive and accurate in comparison with MTT assay.
(§3) Calculation of IC50 data, curves and QC analysis is made by using Excel tools and GraphPadPrism software (La Jolla, CA), v. […] QC criteria parameters (Z', S:B, R2, HillSlope) were checked for every IC50 curve.

The test system of data set [2] is HCC827. The description is as above. The class given is cell-based. The following applies: Homo sapiens; HCC827, 2D cell culture, 72 h, MTS; ±SD, N = 2; read-out: IC50 antitumor activity HCC827 2D. The procedure:
as §1, §2, §3

The subject of data set [3] is NCI-H358. Described as above. In kind it is cell-based. To be noted: Homo sapiens; NCI-H358, 2D cell culture, 72 h, MTS; ±SD, N = 2; read-out: IC50 antitumor activity NCI-H358 2D. The procedure: as §1, §2, §3
Data set [4] is described as follows: Plasma protein binding, equilibrium dialysis. The following applies: for fraction unbound at 4 h, 5 µM: equilibrium dialysis 4 h, 37 °C; for recovery at 4 h, 5 µM: recovery in PPB experiment (value in brackets). The class given is in vitro ADME. The procedure: The extent of binding to plasma proteins was assessed using equilibrium dialysis method. Plasma (human and mouse) was spiked with test compounds and three controls (nicardipine and verapamil in both species, acebutolol in human and caffeine in mouse plasma) to obtain final concentration of 5 µM (0.5%DMSO). Hydrated membranes were inserted into equilibrium dialysis unit (HT Dialysis) according to manufacturer’s instructions. The dialysate side was then loaded with appropriate volume of buffer, while the same volume of spiked plasma was added into sample side of the well. Incubation lasted 4 h at 37 °C with gentle shaking. Afterwards, protein precipitation was done by mixing matrix matched aliquot of plasma or buffer with 3 volumes of MeCN/MeOH (2:1) mixture, containing internal standard (diclofenac). After centrifugation (at 4500 rpm, at 4 °C, for 30 min) resulting supernatants were subjected to LC-MS/MS.
(§4) All ADME samples were analysed on a Sciex API 4000 or Sciex API4500 Triple Quadrupole Mass Spectrometer (Sciex, Framingham, MA, USA) coupled to a UHPLC System (Shimadzu Nexera X2; Shimadzu, Kyoto, Japan). Samples were injected onto an UPLC column (HALO2 C18, 2.1 × 20 mm, 2 µm or Phenomenex Luna Omega Polar C18, 30 × 2.1 mm, 1.6 µm) and eluted with a gradient at temperature of 50 °C. The mobile phase was composed of acetonitrile (with 0.1% formic acid) and 0.1% formic acid in deionised water. A total run time was 1 or 1.5 min, with the flow rate of 0.7 ml/min (under gradient conditions). A positive ion mode with turbo spray, an ion source temperature of 500 °C and a dwell time of 150 ms were utilised for mass spectrometric detection. Multiple reaction monitoring (MRM) was used at the specific transitions for each compound/control tested: compound 5c: 361.9 → 304.9; compound 5d: 344.8 → 287.9; compound 5e: 349.8 → 292.9; compound 5 g: 350.8 → 293.9; compound 5 h: 344.0 → 286.9; compound 6a: 276.9 → 220.0; compound 5 b: 319.0 → 262.0; compound 6 b: 302.1 → 245.1; compound 6c: 344.9 → 288.0; compound 6d: 333.0 → 276.0; compound 6e: 316.1 → 259.0; compound 6f: 327.1 → 270.0; compound 6 g: 377.1 → 320.1; testosterone: 289.3→ 97.1; propranolol: 260.1 → 182.8; caffeine: 195.2 → 138.1; acebutolol: 337.2 → 116.2, nicardipine: 480.2 → 315.0; verapamil: 455.4 → 165.1; amprenavir: 506.2 → 245.4; diclofenac: 296.1 → 213.7 or 296.2 → 215.3; eucatropine: 292.2 → 109.1; benfluorex: 352.1 → 230.3, and warfarin: 309.2 → 163.2

The test system of data set [5] is P-glycoprotein (human MDR1). As to the kind of experiment: MDCKII-MDR1 permeability and P-glycoprotein substrate assay. The class given is in vitro ADME, canine cells over-expressing human MDR1. The following applies: dog; for efflux ratio at 60 min, 10 µM: MDCK-MDR1, pH 7.4, without P-gp inhibitor; for Papp A→B at 60 min, 10 µM / Papp B→A at 60 min, 10 µM: MDCK-MDR1, pH 7.4, without P-gp inhibitor; for Papp A→B at 60 min, 10 µM: read-out: MDCKII-MDR1 Papp(A2B); for Papp B→A at 60 min, 10 µM: read-out: MDCKII-MDR1 Papp(B2A). The method, then: Permeability and P-glycoprotein substrate assessment was done on MDCKII-hMDR1, Madin-Darby canine epithelial cells over-expressing human MDR1 gene, coding for P-glycoprotein.
Cells were prepared for transport studies by seeding on 96-well cell culture inserts (Millipore, MA, USA) in a concentration of 0.25 × 10^6 cells per ml. The cells were fed with fresh medium 24 h post seeding and cultured to confluence for 3 days before use. On the day of experiment, the cell monolayers were washed and equilibrated with transport medium (DPBS, pH 7.4 containing 1% DMSO) with or without P-gp specific inhibitor, elacridar (2 µM) for 45 min (37 °C, 5% CO2, 95% humidity). Test compound solution consisted of test substance (10 μM) in D-PBS medium containing lucifer yellow (100 μM) and 1% DMSO. Transport assays were conducted in apical to basolateral (A2B) and basolateral to apical (B2A) directions, respectively. Monolayers were incubated with the compound solution for 60 min at 37 °C under gentle agitation. Apical and basolateral compartments were sampled at the end of the transport experiment, while donor solutions were also sampled at the beginning of the experiment in order to determine initial concentration. Test substance concentrations in both compartments were determined by LC-MS/MS. There were several controls used in the assay: 1) amprenavir (0.5 μM) served as a low permeable control, being also a P-gp substrate; 2) diclofenac (10 μM) was used as a high permeable control; 3) Lucifer yellow, a fluorescent marker for the paracellular membrane transport, was used as a control of cell monolayer integrity.
as §4

Setting [6] is: human plasma, read-out: PPB % bound, Human (converted).
[7] abbreviates: mouse plasma, read-out: PPB % bound, Mouse (converted).

Where two headings read alike, the source gives them in different places.

Turning to `c1ccc2sc(-c3nc4cc(C5=NCCCN5)ccc4[nH]3)cc2c1` [Compound 6d, 2-(Benzo[b]thiophen-2-yl)-5(6)–(3,4,5,6-tetrahydropyrimidin-1-ium-2-yl)benzimidazole chloride], the IC50 in data set [1], in data set [2] and in data set [3] was more than 50 µM each time. Moreover, the results for the fraction unbound at 4 h, 5 µM in data set [4] (setting [6]) and in data set [4] (setting [7]) were 0.074 and 0.061, respectively. For the same molecule, the values for the recovery at 4 h, 5 µM in data set [4] (human plasma) and in data set [4] (mouse plasma) were 86% and 89%, respectively. Moreover, the efflux ratio (in general, the permeability from basolateral to apical divided by that in the opposite direction, in the common usage) at 60 min, 10 µM in data set [5] worked out at 7.75. The Papp A→B at 60 min, 10 µM in data set [5] is 1.1 nm/s. Further, the Papp B→A at 60 min, 10 µM in data set [5] is 8.6 nm/s.
On to `c1ccc2c(c1)cc(-c1nc3cc(C4=NCCCN4)ccc3[nH]1)c1ccccc12` [Compound 6g, 2-(Phenanthrene-9-yl)-5(6)–(3,4,5,6-tetrahydropyrimidin-1-ium-2-yl)benzimidazole chloride], for which the IC50 in data set [1], in data set [2] and in data set [3] was more than 50 µM in each case. For the same molecule, the fraction unbound at 4 h, 5 µM in data set [4] (setting [6]) is 0.015; in data set [4] (setting [7]), 0.003. Moreover, the recovery at 4 h, 5 µM in data set [4] (human plasma) turned out to be 96%; in data set [4] (mouse plasma) it was 95%. Further, the efflux ratio at 60 min, 10 µM in data set [5] amounted to 6.6. Also, the Papp A→B at 60 min, 10 µM in data set [5] turned out to be 0.2 nm/s. Moreover, in data set [5], the Papp B→A at 60 min, 10 µM was determined as 2 nm/s.
For the molecule `Cl.c1ccc2cc(-c3nc4ccc(C5=NCCCN5)cc4s3)ccc2c1` [Compound 5h, 2-(Naphthalene-2-yl)-6–(3,4,5,6-tetrahydropyrimidin-1-ium-2-yl)benzothiazole chloride], the results for the IC50 in data set [1], in data set [2] and in data set [3] were 38 ± 3.68 µM, 6 ± 0.05 µM and 10 ± 1 µM, respectively. In addition, the fraction unbound at 4 h, 5 µM is 0.024 in data set [4] (setting [6]) and 0.027 in data set [4] (setting [7]). The recovery at 4 h, 5 µM was 80% in data set [4] (human plasma) and 85% in data set [4] (mouse plasma). Also, in data set [5], the efflux ratio at 60 min, 10 µM is more than 77. The Papp A→B at 60 min, 10 µM in data set [5] was less than 1 nm/s. In addition, the Papp B→A at 60 min, 10 µM in data set [5] amounted to 77 nm/s.
Consider `Cl.c1ccc2sc(-c3nc4ccc(C5=NCCCN5)cc4s3)nc2c1` [Compound 5g, 2-(Benzothiazole-2-yl)-6–(3,4,5,6-tetrahydropyrimidin-1-ium-2-yl)benzothiazole chloride], for which the IC50 (as a rule, the midpoint of a concentration-inhibition curve) in data set [1] was 41 ± 0.54 µM; in data set [2], 19 ± 2.21 µM; in data set [3], 26 ± 0.3 µM. Further, the fraction unbound at 4 h, 5 µM in data set [4] (setting [6]) is 0.049; in data set [4] (setting [7]), 0.04. Further, the recovery at 4 h, 5 µM in data set [4] (human plasma) worked out at 94%; in data set [4] (mouse plasma), 85%. In data set [5], the efflux ratio at 60 min, 10 µM is more than 17. In addition, the Papp A→B at 60 min, 10 µM in data set [5] is less than 1 nm/s. Moreover, the Papp B→A at 60 min, 10 µM in data set [5] is 165 nm/s.
Turning to `Cl.c1ccc2sc(-c3nc4ccc(C5=NCCCN5)cc4s3)cc2c1` [Compound 5e, 2-(Benzo[b]thiophen-2-yl)-6–(3,4,5,6-tetrahydropyrimidin-1-ium-2-yl)benzothiazole chloride], the values for the concentration for half-maximal inhibition (IC50) in data set [1], in data set [2] and in data set [3] were 36 ± 6.37 µM, 7 ± 0.12 µM and 16 ± 0.98 µM, respectively. Moreover, the values for the fraction unbound at 4 h, 5 µM in data set [4] (setting [6]) and in data set [4] (setting [7]) were 0.021 and 0.013, respectively. In addition, the values for the recovery at 4 h, 5 µM in data set [4] (human plasma) and in data set [4] (mouse plasma) were 79% and 82%, respectively. Moreover, the efflux ratio at 60 min, 10 µM in data set [5] is more than 78. In addition, the Papp A→B at 60 min, 10 µM in data set [5] was less than 1 nm/s. For the same molecule, the Papp B→A at 60 min, 10 µM in data set [5] amounted to 76 nm/s.
Turning to `Cl.N#Cc1ccc(-c2nc3ccc(C4=NCCCN4)cc3s2)cc1` [Compound 5b, 2–(4-Cyanophenyl)-6–(3,4,5,6-tetrahydropyrimidin-1-ium-2-yl)benzothiazole chloride], the IC50 in data set [1], in data set [2] and in data set [3] was more than 50 µM in each case. The fraction unbound at 4 h, 5 µM in data set [4] (setting [6]) was 0.334; in data set [4] (setting [7]), 0.249. The recovery at 4 h, 5 µM is 93% in data set [4] (human plasma) and 98% in data set [4] (mouse plasma). The efflux ratio at 60 min, 10 µM in data set [5] stood at 35.4. For the same molecule, the Papp A→B at 60 min, 10 µM in data set [5] was found to be 5.9 nm/s. Besides, the Papp B→A at 60 min, 10 µM in data set [5] worked out at 205 nm/s.
As to `Cl.c1ccc2nc(-c3nc4ccc(C5=NCCCN5)cc4s3)ccc2c1` [Compound 5d, 2-(Quinoline-2-yl)-6–(3,4,5,6-tetrahydropyrimidin-1-ium-2-yl)benzothiazole chloride], the IC50 was more than 50 µM in data set [1], 14 ± 2.09 µM in data set [2] and 20 ± 2.53 µM in data set [3]. The results for the fraction unbound at 4 h, 5 µM in data set [4] (setting [6]) and in data set [4] (setting [7]) were 0.053 and 0.04, respectively. The figures for the recovery at 4 h, 5 µM in data set [4] (human plasma) and in data set [4] (mouse plasma) were 76% and 82%, respectively. For the same molecule, the efflux ratio at 60 min, 10 µM in data set [5] was more than 158. For the same molecule, in data set [5], the Papp A→B at 60 min, 10 µM was less than 1 nm/s. For the same molecule, in data set [5], the Papp B→A at 60 min, 10 µM came out at 158 nm/s.
`c1ccc(-c2nc3cc(C4=NCCCN4)ccc3[nH]2)cc1` [Compound 6a, 2-Phenyl-5(6)–(3,4,5,6-tetrahydropyrimidin-1-ium-2-yl)benzimidazole chloride]: the IC50 was 15 ± 1.7 µM in data set [1], 6 ± 0.5 µM in data set [2] and 13 ± 0.28 µM in data set [3]. Further, the fraction unbound at 4 h, 5 µM is 0.403 in data set [4] (setting [6]) and 0.371 in data set [4] (setting [7]). Moreover, the recovery at 4 h, 5 µM came to 75% in data set [4] (human plasma) and 79% in data set [4] (mouse plasma). Moreover, the efflux ratio at 60 min, 10 µM in data set [5] was found to be 3.7. Besides, the Papp A→B at 60 min, 10 µM in data set [5] was determined as 4 nm/s. For the same molecule, the Papp B→A at 60 min, 10 µM in data set [5] was 14 nm/s.
